Assay results reported in US20040063662A1, “Selenophene anti-tumor agents” (priority 1996, published 2004).

Assays:
HOP-92 = assay: NCI human tumor cell panel: HOP-92 (Non-Small Cell Lung Cancer); settings: for GI50: HOP-92, read-out: Log10 GI50 (converted); for IC (TGI): HOP-92, read-out: Log10 TGI
HS 578T = assay: NCI human tumor cell panel: HS 578T (Breast Cancer); assay type: cell-based; settings: for IC (TGI): read-out: Log10 TGI (converted)
OVCAR-4 = assay: NCI human tumor cell panel: OVCAR-4 (Ovarian Cancer); assay type: cell-based; settings: OVCAR-4, read-out: Log10 GI50 (converted)
MCF7 = assay: NCI human tumor cell panel: MCF7 (Breast Cancer); assay type: cell-based; settings: for GI50: MCF7, read-out: Log10 GI50 (converted); for IC (TGI): MCF7, read-out: Log10 TGI (converted)
HCC-2998 = assay: NCI human tumor cell panel: HCC-2998 (Colon Cancer); assay type: cell-based; settings: for GI50: HCC-2998, read-out: Log10 GI50 (converted); for IC (TGI): HCC-2998, read-out: Log10 TGI (converted)
DU-145 = assay: NCI human tumor cell panel: DU-145 (Prostate Cancer); assay type: cell-based; settings: for GI50: DU-145, read-out: Log10 GI50 (converted); for IC (TGI): DU-145, read-out: Log10 TGI (converted)
UACC-62 = assay: NCI human tumor cell panel: UACC-62 (Melanoma); assay type: cell-based; settings: for GI50: UACC-62, read-out: Log10 GI50 (converted); for IC (TGI): UACC-62, read-out: Log10 TGI (converted)
MALME-3M = assay: NCI human tumor cell panel: MALME-3M (Melanoma); assay type: cell-based; settings: Malme-3M; for GI50: read-out: Log10 GI50 (converted); for IC (TGI): read-out: Log10 TGI (converted)
SN12C = assay: NCI human tumor cell panel: SN12C (Renal Cancer); assay type: cell-based; settings: for GI50: read-out: Log10 GI50 (converted); for IC (TGI): read-out: Log10 TGI (converted)
KM12 = assay: NCI human tumor cell panel: KM12 (Colon Cancer); assay type: cell-based; settings: for IC (TGI): KM12, read-out: Log10 TGI (converted)
COLO 205 = assay: NCI human tumor cell panel: COLO 205 (Colon Cancer); assay type: cell-based; settings: for GI50: COLO 205, read-out: Log10 GI50 (converted); for IC (TGI): COLO 205, read-out: Log10 TGI (converted)
PC-3 = assay: NCI human tumor cell panel: PC-3 (Prostate Cancer); assay type: cell-based; settings: for GI50: PC-3, read-out: Log10 GI50 (converted); for IC (TGI): PC-3, read-out: Log10 TGI (converted)
CAKI-1 = assay: NCI human tumor cell panel: CAKI-1 (Renal Cancer); assay type: cell-based; settings: for GI50: CAKI-1, read-out: Log10 GI50 (converted); for IC (TGI): CAKI-1, read-out: Log10 TGI (converted)
SK-OV-3 = assay: NCI human tumor cell panel: SK-OV-3 (Ovarian Cancer); assay type: cell-based; settings: for GI50: SK-OV-3, read-out: Log10 GI50 (converted); for IC (TGI): SK-OV-3, read-out: Log10 TGI (converted)
T-47D = assay: NCI human tumor cell panel: T-47D (Breast Cancer); assay type: cell-based; settings: T47D; for GI50: read-out: Log10 GI50 (converted); for IC (TGI): read-out: Log10 TGI (converted)
K-562 = assay: NCI human tumor cell panel: K-562 (Leukemia); assay type: cell-based; settings: for GI50: K562, K-562, read-out: Log10 GI50 (converted); for IC (TGI): K562, K-562, read-out: Log10 TGI (converted)
UACC-257 = assay: NCI human tumor cell panel: UACC-257 (Melanoma); assay type: cell-based; settings: for GI50: UACC-257, read-out: Log10 GI50 (converted); for IC (TGI): UACC-257, read-out: Log10 TGI (converted)
CCRF-CEM = assay: NCI human tumor cell panel: CCRF-CEM (Leukemia); assay type: cell-based; settings: for GI50: read-out: Log10 GI50 (converted); for IC (TGI): read-out: Log10 TGI (converted)
SNB-19 = assay: NCI human tumor cell panel: SNB-19 (CNS Cancer); assay type: cell-based; settings: for GI50: SNB-19, read-out: Log10 GI50 (converted)
HOP-62 = assay: NCI human tumor cell panel: HOP-62 (Non-Small Cell Lung Cancer); assay type: cell-based; settings: for GI50: HOP-62, read-out: Log10 GI50 (converted); for IC (TGI): HOP-62, read-out: Log10 TGI (converted)
[1] = test system: panel of sixty different human tumor cell lines; assay: NCI human tumor cell panel: whole panel (mean graph summary); settings: for GI50 / CC50: Homo sapiens; for GI50: read-out: Log10 GI50, MG_MID, mean over the panel (converted); for CC50: read-out: Log10 LC50, MG_MID, mean over the panel (converted); for Log10 TGI, MG_MID: mean over the panel; for Log10 TGI, Delta / Log10 TGI, Range: whole panel
OVCAR-5 = assay: NCI human tumor cell panel: OVCAR-5 (Ovarian Cancer); assay type: cell-based; settings: for GI50: OVCAR-5, read-out: Log10 GI50 (converted)
HCT-15 = assay: NCI human tumor cell panel: HCT-15 (Colon Cancer); assay type: cell-based; settings: for GI50: HCT-15, read-out: Log10 GI50 (converted); for IC (TGI): HCT-15, read-out: Log10 TGI (converted)
SR = assay: NCI human tumor cell panel: SR (Leukemia); assay type: cell-based; settings: for GI50: read-out: Log10 GI50 (converted); for IC (TGI): read-out: Log10 TGI (converted)
MDA-MB-231/ATCC = assay: NCI human tumor cell panel: MDA-MB-231/ATCC (Breast Cancer); assay type: cell-based; settings: Homo sapiens, MDA-MB-231, MDA-MB-231/ATCC; for GI50: read-out: Log10 GI50 (converted); for IC (TGI): read-out: Log10 TGI (converted)
NCI-H226 = assay: NCI human tumor cell panel: NCI-H226 (Non-Small Cell Lung Cancer); assay type: cell-based; settings: NCI-H226, read-out: Log10 GI50 (converted)

OCc1ccc(-c2ccc(-c3ccc(CO)[se]3)s2)s1 [compound 688830]
GI50 (HOP-92): 28.2 µM
IC (TGI) (HOP-92): > 100 µM
IC (TGI) (HS 578T): > 100 µM
GI50 (OVCAR-4): 0.105 µM
GI50 (MCF7): 0.0166 µM
IC (TGI) (MCF7): > 100 µM
GI50 (HCC-2998): 0.0631 µM
IC (TGI) (HCC-2998): 11.5 µM
GI50 (DU-145): 22.9 µM
IC (TGI) (DU-145): > 100 µM
GI50 (UACC-62): 0.0135 µM
IC (TGI) (UACC-62): > 100 µM
GI50 (MALME-3M): 43.7 µM
IC (TGI) (MALME-3M): > 100 µM
GI50 (SN12C): 49 µM
IC (TGI) (SN12C): > 100 µM
GI50 (KM12; KM12, read-out: Log10 GI50 (converted)): 47.9 µM
IC (TGI) (KM12): > 100 µM
GI50 (COLO 205): 0.447 µM
IC (TGI) (COLO 205): 5.5 µM
GI50 (PC-3): 30.9 µM
IC (TGI) (PC-3): > 100 µM
GI50 (CAKI-1): < 0.01 µM
IC (TGI) (CAKI-1): 0.0282 µM
GI50 (SK-OV-3): 3.24 µM
IC (TGI) (SK-OV-3): 19.5 µM
GI50 (T-47D): 0.288 µM
IC (TGI) (T-47D): 57.5 µM
GI50 (K-562): 0.0724 µM
IC (TGI) (K-562): 17.4 µM
GI50 (UACC-257): 0.0166 µM
IC (TGI) (UACC-257): 0.0457 µM
GI50 (CCRF-CEM): 25.7 µM
IC (TGI) (CCRF-CEM): > 100 µM
GI50 (SNB-19): 33.9 µM
IC (TGI) (SNB-19; SNB-19, read-out: Log10 TGI (converted)): 87.1 µM
GI50 (HOP-62): 0.0617 µM
IC (TGI) (HOP-62): 28.2 µM
GI50 [1]: 2.29 µM
CC50 [1]: 69.2 µM
Log10 TGI, MG_MID [1]: −4.62
Log10 TGI, Delta [1]: 2.99
Log10 TGI, Range [1]: 3.61
GI50 (OVCAR-5): 0.0229 µM
GI50 (HCT-15): 28.8 µM
IC (TGI) (HCT-15): > 100 µM
GI50 (SR): 24.5 µM
IC (TGI) (SR): 72.4 µM
GI50 (MDA-MB-231/ATCC): 12.6 µM
IC (TGI) (MDA-MB-231/ATCC): 35.5 µM

O=Cc1ccc(-c2ccc(-c3ccc(C=O)[se]3)s2)s1 [compound 688829]
GI50 (HOP-92): 97.7 µM
IC (TGI) (HOP-92): > 100 µM
GI50 (HS 578T; read-out: Log10 GI50 (converted)): 2.88 µM
IC (TGI) (HS 578T): > 100 µM
GI50 (OVCAR-4): 0.186 µM
GI50 (MCF7): 0.191 µM
IC (TGI) (MCF7): > 100 µM
GI50 (HCC-2998): 0.389 µM
IC (TGI) (HCC-2998): > 100 µM
GI50 (DU-145): > 100 µM
IC (TGI) (DU-145): > 100 µM
GI50 (UACC-62): 0.141 µM
IC (TGI) (UACC-62): > 100 µM
GI50 (MALME-3M): 28.8 µM
IC (TGI) (MALME-3M): > 100 µM
GI50 (SN12C): 28.2 µM
IC (TGI) (SN12C): 85.1 µM
IC (TGI) (KM12): > 100 µM
GI50 (NCI-H226): 0.891 µM
GI50 (COLO 205): 12 µM
IC (TGI) (COLO 205): 33.1 µM
GI50 (PC-3): 28.2 µM
IC (TGI) (PC-3): > 100 µM
GI50 (CAKI-1): 0.191 µM
IC (TGI) (CAKI-1): 0.501 µM
GI50 (SK-OV-3): 26.3 µM
IC (TGI) (SK-OV-3): > 100 µM
GI50 (T-47D): 0.339 µM
IC (TGI) (T-47D): > 100 µM
GI50 (K-562): 0.251 µM
IC (TGI) (K-562): > 100 µM
GI50 (UACC-257): 0.195 µM
IC (TGI) (UACC-257): 0.513 µM
GI50 (CCRF-CEM): 7.94 µM
IC (TGI) (CCRF-CEM): > 100 µM
GI50 (SNB-19): > 100 µM
GI50 (HOP-62): 0.251 µM
IC (TGI) (HOP-62): 15.8 µM
GI50 [1]: 5.37 µM
CC50 [1]: 87.1 µM
Log10 TGI, MG_MID [1]: −4.35
Log10 TGI, Delta [1]: 2.75
Log10 TGI, Range [1]: 3.10
GI50 (OVCAR-5): 0.123 µM
IC (TGI) (OVCAR-5; OVCAR-5, read-out: Log10 TGI (converted)): 0.501 µM
GI50 (HCT-15): 22.9 µM
IC (TGI) (HCT-15): > 100 µM
GI50 (SR): 24.5 µM
IC (TGI) (SR): 72.4 µM
GI50 (MDA-MB-231/ATCC): 23.4 µM
IC (TGI) (MDA-MB-231/ATCC): 67.6 µM
